Columns and labels:
[1] = target: T1, human NCX1 (Homo sapiens, UniProt P32418); assay: NCX1 inhibition, reverse mode (Ca2+ influx into cells), FLIPR Fluo-4 assay; format: cell-based; settings: inhibition of NCX1 in reverse mode (Ca2+ influx into cells); read-out: NCX1rv IC50
T1 construct: expressed in transfected cells
How it was run: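 Max−min Fluo-4 fluorescence (520 nm, FLIPR, 240 points at 2 s) after 20 µM final gramicidin, which drives Na+ loading and reverse-mode Ca2+ entry, gave % inhibition and IC50. Test compound was preincubated 45 min at 16 °C with Fluo-4-loaded CHO cells stably expressing human NCX1, in pH 7.4 buffer containing 3.5 mM CaCl2 and probenecid.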

[2] = test system: Sprague-Dawley rats; assay: In vivo method for determining the effect on heart contractility (left ventricular dp/dtmax); settings: Rattus norvegicus, iv, anesthetized rats, vs solvent control, read-out: Contractility increase (%); for change in vivo at 0.1 mg/kg: i.v. bolus injection 0.1 mg/kg; for change in vivo at 0.3 mg/kg: i.v. bolus injection 0.3 mg/kg; for change in vivo at 1 mg/kg: i.v. bolus injection 1.0 mg/kg
Method: Adult male Sprague-Dawley rats (Harlan Winkelmann, Borchen, Germany) weighing 340 to 370 g were anesthetized with pentobarbital (100 mg/kg i.p.) and ventilated with a mixture of oxygen (40%) and room air (60%) at a tidal volume of 1 ml/100 g at 60 breaths/min. Body temperature was maintained at 36.5±0.3° C. with a heating lamp and was monitored with a rectal thermo sensor. Systemic blood pressure was measured in the left carotid artery using a pressure transducer (Combitrans; B. Braun Melsungen AG, Melsungen, Germany) connected to a DC-bridge-amplifier (PLUGSYS/ADC Type 663; Harvard Apparatus GmbH, March-Hugstetten, Germany). The electrocardiogram was measured as lead II via subcutaneously placed electrodes connected to a Heart-Rate-Module ([…] Type 669; Harvard Apparatus GmbH, March-Hugstetten, Germany). A micro-tip catheter (2 French, SPR-320; Millar Instruments, Houston, Tex., USA) was placed via the right carotid artery into the left ventricle, and the left ventricular pressure (LVP) and the enddiastolic pressure (EDP) were continuously measured. Registration of the hemodynamic data was performed via an analog digital converter by a personal computer using Notocord software (HEM version 3.5). Left ventricular contractility (dp/dtmax) and relaxation (dp/dtmin) were calculated from the LVP signal. For intravenous administration of the test compounds, the left jugular vein was prepared and a PP-50 catheter was inserted. Test compounds were administered either by intravenous bolus injection or by intravenous infusion by means of an infusion pump (Unita; B. Braun Melsungen AG, Melsungen, Germany). […] In a typical experiment, several dosages of the test compound were administered subsequently at increasing doses. Statistical significance of the data obtained with drug vs. control experiments, in which solvent was administered, was evaluated with the 2-sided ANOVA test (program Everstat). Increases in left ventricular contractility (percent increase) by example compounds are given in Table 3 in comparison to control experiments in which solvent was administered.

| IC50 [1] [nM] | Compound | change in vivo at 0.1 mg/kg [2] [%] | change in vivo at 0.3 mg/kg [2] [%] | change in vivo at 1 mg/kg [2] [%] |
| --- | --- | --- | --- | --- |
| 600 | Cc1ccccc1C1CCc2cc(Oc3ncc(CNC(=O)c4ccno4)s3)ccc2O1 (centres unmarked) [Example 329, Isoxazole-5-carboxylic acid [2-(2-o-tolyl-chroman-6-yloxy)-thiazol-5-ylmethyl]-amide] | 24 | 53 | 101 |
| 400 | Cc1ccccc1C1CCc2cc(Oc3ncc(C(=O)NCCO)s3)ccc2O1 (centres unmarked) [Example 299, 2-(2-o-Tolyl-chroman-6-yloxy)-thiazole-5-carboxylic acid (2-hydroxy-ethyl)-amide] | 36 | 62 | 95 |

Source: US20140243292A1, “SUBSITUTED 2-(CHROMAN-6-YLOXYL)-THIAZOLES AND THEIR USE AS PHARMACEUTICALS” (Sanofi, priority 2011, published 2014)
